The source of these data is patent US20250387298A1, “FLEXIBLE MEDICAL CONTAINER” (B. Braun Melsungen AG, priority 2024, published 2025).

The nature of this series: Simulating experiments: Pip-Taz powder incubated with potential impurities in glass vials, turbidity after reconstitution. The series is classed as physicochemical. The method, then:
In order to mimic and evaluate the impact of Ti, Al, Sn, Ni, Mg, Cr, and Si containing impurities on the turbidity of piperacillin and tazobactam formation, the following simulating experiments were carried out (reference 6.7, Notebook BB5254/125, 134, 140-141, 145-146). Powders of piperacillin and tazobactam were mixed with different potential impurities in glass vials and incubated at 40° C. for 3 weeks. […] [table]

The mark [1] stands for this setting: 40° C. for 3 weeks in glass vial, 0.3 g Pip-Taz with 1-2 mg chemical, reconstituted in 12 mL 0.9% NaCl.
Where [2] appears, read: 40° C. for 3 weeks, chemical without drug, 0.9% NaCl.
Setting [3] is: Drug & Chemicals minus Chemical only, 40° C. for 3 weeks.
[4] abbreviates: conclusion from Table 2, by metal/element of the impurity.

Like-named read-outs stand apart in the source and are kept apart here. Marks after values point to notes of the source that are not given here.

For the compound `O.O.O.O.O.O.[Cl][Cr]([Cl])[Cl]` [chromium (Ill) chloride hexahydrate], the “Turbidity, Drug & Chemicals (Target Mole Ratio = 100:1, ~100 ppm for chemicals)” value under setting [1] was 15.60. Moreover, under setting [2], the “Turbidity, Chemical only (~100 ppm)” value was 0.18. Further, the “Turbidity Delta” value under setting [3] was 15.42.

Take `CC(=O)[O-].CC(=O)[O-].[Fe+2]` [iron(ll) acetate]: under setting [1], the “Turbidity, Drug & Chemicals (Target Mole Ratio = 100:1, ~100 ppm for chemicals)” value was 98.77. Moreover, the “Turbidity, Chemical only (~100 ppm)” value under setting [2] was 9.66. The “Turbidity Delta” value under setting [3] is given as 89.10.

Turning to `O[Si](O)(O)C1CCCCC1` [Cyclohexyl-dihydroxyl-hydroxylsilane], under setting [1], the “Turbidity, Drug & Chemicals (Target Mole Ratio = 100:1, ~100 ppm for chemicals)” value is 18.20. Further, under setting [2], the “Turbidity, Chemical only (~100 ppm)” value is given as 0.54. Besides, the “Turbidity Delta” value under setting [3] was 17.66. For the same compound, the “impact on the turbidity of piperacillin and tazobactam” value (shortened to “impact on the turbidity”) under setting [4] is “substantial effect”.

In the case of `CC(=O)[O-].CC(=O)[O-].CC(=O)[O-].CC(=O)[O-].[Sn+4]` [tin (IV) acetate], the “Turbidity Delta” value was 1.04; the “Turbidity, Chemical only (~100 ppm)” value is on record as 0.08; the “Turbidity, Drug & Chemicals (Target Mole Ratio = 100:1, ~100 ppm for chemicals)” value is listed as 1.13.

Take `O=S(=O)([O-])[O-].[Mg+2]` [magnesium sulfate]: the “Turbidity, Drug & Chemicals” value is on record as 1.53*; the “impact on the turbidity” value is recorded as “no impact”.

With `CC(=O)/C=C(/C)[O-].CC(=O)/C=C(/C)[O-].[O]=[Ti+2]` [titanium (IV) oxyacetylacetonate], the “Turbidity, Drug & Chemicals (Target Mole Ratio = 100:1, ~100 ppm for chemicals)” value under setting [1] is recorded as 179.33. In addition, under setting [2], the “Turbidity, Chemical only (~100 ppm)” value is reported as 5.44. For the same compound, the “Turbidity Delta” value under setting [3] is 173.89. Moreover, the “impact on the turbidity” value under setting [4] was “substantial effect”.

For the compound aluminum chloride hydrate, under setting [1], the “Turbidity, Drug & Chemicals (Target Mole Ratio = 100:1, ~100 ppm for chemicals)” value is reported as 3.01. The “Turbidity, Chemical only (~100 ppm)” value under setting [2] was 0.13. The “Turbidity Delta” value under setting [3] was 2.88. In addition, the “impact on the turbidity” value under setting [4] is recorded as “substantial effect”.
